From patent US10473640B2, “Drug selection for gastric cancer therapy using antibody-based arrays” (Société des Produits Nestlé S.A., priority 2006, dated 2019)

Experiments:
c-Met [1] = target: T1, c-Met (Homo sapiens, UniProt P08581); details: cited from earlier work
HER2 [2] = experiment: HER2 activation in HGF-treated HCC827 cells (proximity assay); assay type: cell-based; details: HCC827 lung cancer cells, FIG. 4
Excerpt: (§1) The multiplexed protein microarray platform described herein utilizes the formation of a unique immuno-complex requiring the co-localization of two detector enzyme-conjugated-antibodies once target proteins are captured on the microarray surface. The channeling events between two detector enzymes (glucose oxidase (GO) and horseradish peroxidase (HRP)) in proximity enables the profiling of a receptor tyrosine kinase (RTK) such as c-Met with extreme sensitivity. […] In particular, the multiplexed proximity assay is based on (1) a multiplexed protein microarray platform combined with (2) a triple-antibody-enzyme channeling signal amplification process. The unique and novel design is provided by the triple-antibody enzyme approach that confers ultra-high sensitivity while preserving specificity: • (1) The selected target is captured by target-specific antibodies printed in serial dilutions on a microarray surface. […] The detection and quantification of as few as ˜2-3×10^4 phosphorylation events is routinely achieved by this method, bringing its detection to a “single” cell level. In certain instances, this collaborative immunoassay configuration can be further applied to investigate protein interactions and activations.

HER2 [3] = experiment: HER2 activation in HGF-treated A431 cells (proximity assay); assay type: cell-based; details: A431 epidermoid carcinoma cells, FIG. 3
Description: (§2) The slide was incubated for two hours at room temperature. • 4) After six washes with TBS-Tween, 80 μl of detection antibodies for the proximity assay diluted in TBS-Tween/2% BSA/1% FBS was added to the slides. The incubation was for 2 hours at room temperature. • a) As a non-limiting example, the detection antibodies can comprise the following: (i) an anti-c-Met monoclonal antibody that is directly conjugated to glucose oxidase (GO); and (ii) a monoclonal antibody recognizing phosphorylated c-Met that is directly conjugated to horseradish peroxidase (HRP). • b) Alternatively, the detection step can utilize a biotin-conjugate of the monoclonal antibody recognizing phosphorylated c-Met. In these instances, after six washes, an additional sequential step of incubation with streptavidin-HRP for 1 hour is included. • c) Alternatively, the detection step can utilize an oligonucleotide-mediated glucose oxidase (GO) conjugate of the anti-c-Met antibody. […]
(§3) The multiplexed protein microarray platform described herein utilizes the formation of a unique immuno-complex requiring the co-localization of two detector enzyme-conjugated-antibodies once target proteins are captured on the microarray surface. […] The detection and quantification of as few as ˜2-3×10^4 phosphorylation events is routinely achieved by this method, bringing its detection to a “single” cell level. […]

c-Met [4] = target: T1, c-Met; experiment: c-Met activation in HGF-treated A431 cells (proximity assay); assay type: cell-based; details: A431 epidermoid carcinoma cells, FIG. 3
Description: as §2, §3

c-Met [5] = target: T1, c-Met; experiment: c-Met activation in HGF-treated HCC827 cells (proximity assay); assay type: cell-based; details: HCC827 lung cancer cells, FIG. 4
Excerpt: as §1

[6] = early Phase I; cited from earlier work
human xenograft models = details: dosed orally; cited from earlier work
[7] = in vivo; cited from earlier work
CYP450 = details: cited from earlier work

T1 sequence (P08581 25-1390): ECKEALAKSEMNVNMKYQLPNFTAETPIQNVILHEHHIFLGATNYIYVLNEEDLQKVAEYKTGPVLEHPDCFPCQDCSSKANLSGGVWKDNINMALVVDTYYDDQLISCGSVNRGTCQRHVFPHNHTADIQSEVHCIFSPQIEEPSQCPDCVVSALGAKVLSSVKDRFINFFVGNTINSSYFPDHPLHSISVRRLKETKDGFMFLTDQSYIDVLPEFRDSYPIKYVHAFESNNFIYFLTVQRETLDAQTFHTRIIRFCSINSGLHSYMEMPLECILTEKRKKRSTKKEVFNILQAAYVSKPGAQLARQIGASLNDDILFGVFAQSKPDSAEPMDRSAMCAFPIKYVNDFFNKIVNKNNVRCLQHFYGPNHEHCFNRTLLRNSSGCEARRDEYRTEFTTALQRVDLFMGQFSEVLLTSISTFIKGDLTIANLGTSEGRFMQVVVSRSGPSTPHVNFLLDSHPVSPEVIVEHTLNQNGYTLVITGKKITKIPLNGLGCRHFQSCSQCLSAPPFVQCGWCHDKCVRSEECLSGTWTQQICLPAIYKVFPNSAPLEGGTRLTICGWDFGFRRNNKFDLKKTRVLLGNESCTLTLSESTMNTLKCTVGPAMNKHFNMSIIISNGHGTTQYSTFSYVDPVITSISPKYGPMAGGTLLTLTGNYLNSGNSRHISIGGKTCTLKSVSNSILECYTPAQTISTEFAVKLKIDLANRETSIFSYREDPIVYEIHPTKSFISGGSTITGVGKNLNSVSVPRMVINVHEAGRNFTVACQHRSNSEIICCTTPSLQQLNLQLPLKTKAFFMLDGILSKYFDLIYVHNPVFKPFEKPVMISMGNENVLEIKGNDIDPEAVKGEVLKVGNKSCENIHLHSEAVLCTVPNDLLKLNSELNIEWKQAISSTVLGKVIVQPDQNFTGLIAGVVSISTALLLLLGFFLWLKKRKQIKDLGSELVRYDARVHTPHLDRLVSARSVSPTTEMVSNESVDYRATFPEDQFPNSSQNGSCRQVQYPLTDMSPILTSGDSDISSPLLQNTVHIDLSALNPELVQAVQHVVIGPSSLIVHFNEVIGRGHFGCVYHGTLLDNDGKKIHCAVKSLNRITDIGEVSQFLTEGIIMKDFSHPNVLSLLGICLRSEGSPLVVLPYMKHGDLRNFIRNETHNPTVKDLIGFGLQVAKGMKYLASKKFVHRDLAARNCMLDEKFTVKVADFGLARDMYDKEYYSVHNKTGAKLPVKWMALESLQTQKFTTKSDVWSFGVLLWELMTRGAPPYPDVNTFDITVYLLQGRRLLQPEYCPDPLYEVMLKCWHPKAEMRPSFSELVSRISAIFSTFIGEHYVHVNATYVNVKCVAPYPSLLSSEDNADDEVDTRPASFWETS

MetMAb: humanized, monovalent, antagonistic anti-c-Met antibody derived from the agonistic monoclonal antibody 5D5
binding to c-Met (c-Met [1]): high affinity

HGF: c-Met ligand, hepatocyte growth factor, a multidomain glycoprotein
HER2 phosphorylation (HER2 [2]): not affected | HER2 phosphorylation (HER2 [3]): slightly decreased | c-Met phosphorylation (c-Met [4]): stimulated | increase of c-Met phosphorylation (c-Met [5]): about 4 fold

CN(C[C@@H]1COCCO1)S(=O)(=O)Nc1ccc2ccc3ncc(-c4cnn(C)c4)cc3c(=O)c2c1 [MK-2461]
tolerability [6]: well tolerated

Cn1cc(-c2ccc3nnc(Sc4ccc5ncccc5c4)n3n2)cn1 [SGX523]
antitumor activity (human xenograft models): potent antitumor activity | toxicity (human xenograft models): no overt toxicity

COc1cc2c(Oc3ccc(NC(=O)C4(C(=O)Nc5ccc(F)cc5)CC4)cc3F)ccnc2cc1OCCCN1CCOCC1 [XL880]
oral bioavailability [7]: good | CYP450 substrate / inhibitor / inducer (CYP450): substrate, but not an inhibitor or inducer
